Experiment [1] relates to pre-infected lemons (inoculum of homogenized infected lemons). Nature of the experiment: Decay of pre-infected, pricked lemons after sanitizing treatment. Type of experiment: in vivo. The source says:
Inoculum preparation: Infected lemons were identified visually and collected under three different lemon trees on Moshav Beit Yitzhak. Ten of the more infected lemons were put into a food processor, diluted with rainwater and homogenized to uniform, grayish brown, slightly viscous liquid consistency.
They were sent to de-greening from which they were removed on 2nd day. All lemons were pricked in 6 different location on each lemon using a metal nail attached to a rubber stopper which ensured a uniform pricking depth of 1.5 mm on all the lemons. On the same day the liquidized inoculum was prepared as described above and all the lemons were dipped into the “infected” water solution for 30 seconds and allowed to dry at ambient room conditions—temperatures between […].
On the next day the lemons were treated as per description below to screen the various treatment's efficacy in controlling and preventing decay and spoilage of the pre-infected lemons. All treated lemons were divided and placed in separate cartons and allowed to dry. Disease progress of the lemons was monitored for 7 days with no visible disease symptoms. On day 8 after treatment all cartons were covered with plastic sheeting in order to increase ambient humidity to speed up disease development.

The next experiment deals with common fungal pathogen. Nature of the experiment: Decay of clementine infested with fungal pathogen after treatment. Type of experiment: in vivo. The settings on record: fruits infested at around 10^5 CFU, cold storage 9 to 21 days then room temperature. The method, then:
Additionally, exemplary sanitizing composition (Composition B) was applied on clementine, and the fruit decay was evaluated as compared to only PAA treatment or untreated fruits. The fruits were infested with a common fungal pathogen at a concentration of around 10^5 CFU and inoculated for 16-24 hours before treatment. Following the treatments, the fruits were stored in cold storage for between 9 to 21 days and then stored in room temperature for shelf-life evaluation.

Another experiment concerns Listeria. In words: In-vitro antimicrobial activity, edible matter contaminated with bacteria dipped into test solution (CFU reduction). Type of experiment: cell-based. The note with it: contact time 60 minutes. As for the experimental part: The antimicrobial activity of the composition was tested in-vitro. […] The contact time was 60 minutes. The antimicrobial activity was assessed by calculating bacterial viability (e.g. reduction of the CFU).

Setting [2] is: Treatment 3: PAA 50 ppm/PAA 50 ppm, contact time 60 sec.
The mark [3] stands for this setting: Treatment 4: PAA 50 ppm/PAA 50 ppm, contact time 45 sec.
Setting [4] is: Treatment 5: PAA 30 ppm, contact time 45 sec.
The mark [5] stands for this setting: acid blend 1:1:1 molar ratio with oxidizing agent, potent = at least 10^5-fold reduction of CFUs.

Turning to `CC(=O)OO` [PAA, per-acetic acid], in experiment [1] (setting [2]), the “% Infected Lemons 15 DAT” value is 16.7%, the “% Infected lemons 10 DAT” value came out at 0%, the “Infected Lemons 10 DAT” value amounted to 0 and the “Infected Lemons 15 DAT” value is given as 2. In experiment [1] (setting [3]), the “% Infected Lemons 15 DAT” value was 25%, the “% Infected lemons 10 DAT” value is given as 20%, the “Infected Lemons 10 DAT” value was 3 and the “Infected Lemons 15 DAT” value was 3. For the same molecule, in experiment [1] (setting [4]), the “% Infected Lemons 15 DAT” value is 40%, the “% Infected lemons 10 DAT” value was 40%, the “Infected Lemons 10 DAT” value was 4 and the “Infected Lemons 15 DAT” value was 4. Besides, the decay of clementine result in the experiment on common fungal pathogen is “about 20%”.
As to `OO` [hydrogen peroxide], the “minimum concentration of hydrogen peroxide within the solution” value in the experiment with Listeria (setting [5]) is on record as 200 ppm. The “antimicrobial activity of the oxidizing agent alone” value in the experiment on Listeria (without acid blend) is listed as “Neither hydrogen peroxide, nor silver/hydrogen peroxide combination showed a significant antimicrobial activity”.
Take `CCC(=O)O` [propionic acid]: the “concentration of propionic acid within the solution sufficient for antibacterial activity” value in the experiment with Listeria (setting [5]) amounted to 100 ppm.

The record behind these values is US20230121474A1, “STERILIZATION COMPOSITIONS AND METHODS FOR USING THEREOF” (Save Foods Ltd., priority 2020, published 2023).
